Measurements from patent publication US20160113921A1, “COMBINATION THERAPY COMPRISING OXAZOLIDINONE-QUINOLONES FOR USE IN TREATING BACTERIAL INFECTIONS” (MORPHOCHEM AKTIENGESELLSCHAFT FÜR KOMBINATORISCHE CHEMIE, priority 2013, published 2016).
In brackets after ≈: the same amount, converted by molar mass. Several values for one entry are separate records, joined by “and”; a condition that tells them apart may be missing. Identical values can stand only once. Blank lines part the entries; values can stand above or below the compound they belong to.

Key:
Format in all cases: cell-based
[1] = tested on: S. aureus DSM 11823, clone 16 (MSSA, quinolone-resistant); assay: microbe, parasite or virus in culture; settings: Staphylococcus aureus
Description: (§1) MIC-testing was done immediately after preparation of the dilutions. All tests were done in duplicate and repeated once on a separate occasion.
(§2) 1 mL of the bacterial suspension was transferred into a tube containing 10 mL CAMHB and was vortexed thoroughly. (S. pneumoniae 1 mL in 10 mL CAMHB+5% lysed horse blood). Columns 1-15 of the 96-well plate were inoculated with 5 μL of this suspension (1-15=antibacterial solution, 16=sterile medium without test item).
(§3) Turbidity was read visually with a mirror.

[2] = tested on: E. coli NRZ-00401; assay: Time-kill curves; settings: E. coli NRZ00401; for growth- and kill rates k ('+' = growth, unmarked = kill rate): first four hours
[3] = tested on: E. coli NRZ-00302; assay: Time-kill curves; settings: E. coli NRZ00302; for growth- and kill rates k ('+' = growth, unmarked = kill rate): first four hours
[4] = tested on: E. coli ATCC 25922; assay: Time-kill curves; settings: E. coli ATCC25922; for growth- and kill rates k ('+' = growth, unmarked = kill rate): first four hours
[5] = tested on: S. aureus ATCC 33593 (MRSA); assay: MIC, broth microdilution (CLSI), CAMHB; settings: Staphylococcus aureus; monosubstance; Sa ATCC33593; read-out: MIC
Description: as §1, §2, §3

[6] = tested on: E. faecalis ATCC 29212; assay: MIC, broth microdilution (CLSI), CAMHB; settings: Enterococcus faecalis; monosubstance; Ef ATCC29212; read-out: MIC
Description: as §1, §2, §3

[7] = tested on: S. aureus ATCC 29213; assay: MIC, broth microdilution (CLSI), CAMHB; settings: Staphylococcus aureus; monosubstance; Sa ATCC29213; read-out: MIC
Description: as §1, §2, §3

[8] = tested on: E. faecalis V583 (VanB); assay: MIC, broth microdilution (CLSI), CAMHB; settings: Enterococcus faecalis; monosubstance; Ef V583; read-out: MIC
Description: as §1, §2, §3

[9] = tested on: S. pneumoniae BAY 19397 (penicillin-, macrolide-, quinolone-resistant); assay: MIC, broth microdilution (CLSI), CAMHB; settings: monosubstance; Spn 19397; listed as MCB
Description: as §1, §2, §3

[10] = tested on: S. pneumoniae ATCC 33400; assay: MIC, broth microdilution (CLSI), CAMHB; settings: Streptococcus pneumoniae; monosubstance; Spn ATCC33400; read-out: MIC
Description: as §1, §2, §3

[11] = tested on: E. coli ATCC 25922; assay: MIC, broth microdilution (CLSI), CAMHB; settings: Escherichia coli; monosubstance; Ec ATCC25922; read-out: MIC
Description: as §1, §2, §3

[12] = tested on: E. coli GNS-2601; assay: Time-kill curves; settings: E. coli GNS2601; for growth- and kill rates k ('+' = growth, unmarked = kill rate): first four hours
[13] = tested on: P. aeruginosa NRZ-00425 (VIM-2 β-lactamase); assay: microbe, parasite or virus in culture; settings: Pseudomonas aeruginosa, checkerboard, read-out: MIC (agent alone)
Excerpt: (§4) The checkerboard consists of columns in which each well contains the same amount of antibacterial A being over i dilutions along the x-axis, and in rows in which each well contains the same amount of antibacterial B over j dilutions on the y-axis, i.e. serial dilutions of antibacterials A and B, respectively, are titrated in a rectangular fashion.
(§5) The fractional inhibitory concentration (FIC) is a mathematical expression of the effect of the combination of two antibacterial agents A and B. The FICs were calculated as the MIC of antibacterial A and antibacterial B in combination divided by the MIC of antibacterial A or antibacterial B alone.
(§6) The FICs and FIC index, respectively, are calculated according to the following equations:
(§7) FIC(A)=MIC(A in the presence of B)/MIC(A alone)
(§8) FIC(B)=MIC(B in the presence of A)/MIC(B alone)
(§9) The checkerboard titrations were performed three times.

[14] = tested on: E. cloacae ATCC 13047; assay: Checkerboard titration of Compound 1 and colistin; settings: Enterobacter cloacae, ATCC13047, checkerboard, read-out: MIC (agent alone)
Excerpt: as §4, §5, §6, §7, §8, §9

[15] = tested on: E. coli ATCC 25922; assay: Checkerboard titration of Compound 1 and colistin; settings: Escherichia coli, ATCC25922, read-out: MIC (agent alone)
Excerpt: as §4, §5, §6, §7, §8, §9

[16] = tested on: Gram-positive strains tested; assay: MIC testing, statements on the Gram-positive strain panel; settings: all Gram-positive strains tested; read-out: MIC (inhibitory concentration)
Excerpt: as §1

[17] = tested on: six selected indicator strains; assay: Checkerboard titration, statements on the six indicator strains; settings: read-out: MIC of Compound 1 alone, checkerboard; strains as worded in the text
Excerpt: as §4, §5, §9

[18] = tested on: S. aureus Visa Mu 50 (MRSA, vancomycin intermediate susceptible); assay: MIC, broth microdilution (CLSI), CAMHB; settings: Staphylococcus aureus; monosubstance; Sa VisaMu50; read-out: MIC
Description: as §1, §2, §3

[19] = tested on: E. coli NRZ-00401 (metallo β-lactamase VIM-1); assay: MIC, broth microdilution (CLSI), CAMHB; settings: Escherichia coli; monosubstance; Ec NRZ00401; read-out: MIC
Description: as §1, §2, §3

[20] = tested on: E. faecium DSMZ 2146; assay: MIC, broth microdilution (CLSI), CAMHB; settings: Enterococcus faecium; monosubstance; Efc DSMZ2146; read-out: MIC
Description: as §1, §2, §3

[21] = tested on: E. cloacae ATCC 13047; assay: MIC, broth microdilution (CLSI), CAMHB; settings: Enterobacter cloacae; monosubstance; Ecl ATCC13047; read-out: MIC
Description: as §1, §2, §3

[22] = tested on: K. pneumoniae ATCC 13883; assay: MIC, broth microdilution (CLSI), CAMHB; settings: Klebsiella pneumoniae; monosubstance; Kp ATCC13883; read-out: MIC
Description: as §1, §2, §3

[23] = tested on: E. faecium UW 3695 (linezolid and quinolone-resistant); assay: MIC, broth microdilution (CLSI), CAMHB; settings: Enterococcus faecium; monosubstance; Efc UW3695; read-out: MIC
Description: as §1, §2, §3

[24] = tested on: S. aureus NRS-119 (MRSA, linezolid- and quinolone-resistant); assay: MIC, broth microdilution (CLSI), CAMHB; settings: Staphylococcus aureus; monosubstance; Sa NRS119; read-out: MIC
Description: as §1, §2, §3

[25] = tested on: E. coli ATCC 25922, NRZ-00401, NRZ-00302 and GNS-2601; assay: Time-kill curves, statements on the four E. coli strains
[26] = tested on: E. coli GNS-2601 (ESBL CTX-M-15); assay: MIC, broth microdilution (CLSI), CAMHB; settings: Escherichia coli; monosubstance; Ec GNS2601; read-out: MIC
Description: as §1, §2, §3

[27] = tested on: E. coli NRZ-00302 (metallo β-lactamase NDM-1); assay: MIC, broth microdilution (CLSI), CAMHB; settings: Escherichia coli; monosubstance; Ec NRZ00302; read-out: MIC
Description: as §1, §2, §3

Structure (SMILES): CC(=O)NC[C@H]1CN(c2ccc(OCC3(O)CCN(c4cc5c(cc4F)c(=O)c(C(=O)O)cn5C4CC4)CC3)c(F)c2)C(=O)O1 [Compound 1, 7-(4-{4-[(5S)-5-(acetylamino-methyl)-2-oxo-oxazolidin-3-yl]-2-fluoro-phenoxymethyl}-4-hydroxy-piperidin-1-yl)-1-cyclopropyl-6-fluoro-4-oxo-1,4-dihydro-quinoline-3-carboxylic acid]
MIC [1]: 0.03 µg/mL (≈ 0.0479 µM)
Viable counts at 8 h of exposure ([2]; single agent at 1x its MIC): 6.32 log10 CFU/mL
Viable counts at 8 h of exposure ([3]; single agent at 1x its MIC): 8.28 log10 CFU/mL
Viable counts at 8 h of exposure ([3]; single agent at 2x its MIC): 5.69 log10 CFU/mL
Viable counts at 8 h of exposure ([4]; single agent at 1x its MIC): 4.69 log10 CFU/mL
Viable counts at 8 h of exposure ([4]; single agent at 2x its MIC, listed as MCB): 2.61 log10 CFU/mL and 2.62 log10 CFU/mL
MIC [5]: 0.03 µg/mL (≈ 0.0479 µM)
MIC [6]: 0.03 µg/mL (≈ 0.0479 µM)
MIC [7]: 0.25 µg/mL (≈ 0.399 µM)
MIC [8]: 0.03 µg/mL (≈ 0.0479 µM)
MIC [9]: 0.0004 µg/mL (≈ 0.000638 µM)
MIC [10]: 0.0075 µg/mL (≈ 0.012 µM)
MIC [11]: 16 µg/mL (≈ 25.5 µM)
Viable counts at 8 h of exposure ([12]; single agent at 1x its MIC, listed as MCB): 8.34 log10 CFU/mL and 7.34 log10 CFU/mL
Viable counts at 8 h of exposure ([12]; single agent at 2x its MIC): 6.29 log10 CFU/mL
MIC [13]: 128 to 256 µg/mL

Structure (SMILES): CC(=O)NC[C@H]1CN(c2ccc(OCC3(O)CCN(c4cc5c(cc4F)c(=O)c(C(=O)O)cn5C4CC4)CC3)c(F)c2)C(=O)O1 [Compound 1, 7-(4-{4-[(5S)-5-(acetylamino-methyl)-2-oxo-oxazolidin-3-yl]-2-fluoro-phenoxymethyl}-4-hydroxy-piperidin-1-yl)-1-cyclopropyl-6-fluoro-4-oxo-1,4-dihydro-quinoline-3-carboxylic]
MIC [14]: > 256 µg/mL
MIC [15]: 8 to 16 µg/mL
MIC [16]: < 0.25 µg/mL
MIC [17]: > 256 µg/mL
MIC [18]: 0.06 µg/mL (≈ 0.0958 µM)
MIC [19]: 16 µg/mL (≈ 25.5 µM)
MIC [20]: 0.06 µg/mL (≈ 0.0958 µM)
MIC [21]: 128 µg/mL (≈ 204 µM)
MIC [22]: 128 µg/mL (≈ 204 µM)
MIC [23]: 0.06 µg/mL (≈ 0.0958 µM)
MIC [24]: 1 µg/mL (≈ 1.6 µM)

MIC [26]: 64 µg/mL (≈ 464 µM)
MIC [19]: 2 µg/mL (≈ 14.5 µM)
MIC [11]: 2 µg/mL (≈ 14.5 µM)
MIC [27]: 64 µg/mL (≈ 464 µM)
Structure (SMILES): C[C@@H]1O[C@@H]1P(=O)(O)O [fosfomycin]
type of activity in time-kill ([25]; strains ATCC 25922, NRZ-00401): bacteriostatically
type of activity in time-kill ([25]; strains NRZ-00302 and GNS-2601): bactericidal
growth- and kill rates k ('+' = growth, unmarked = kill rate) ([2]; single agent at 1x its MIC): +0.40 h^−1
growth- and kill rates k ('+' = growth, unmarked = kill rate) ([2]; single agent at 2x its MIC): +0.32 h^−1
Viable counts at 8 h of exposure ([2]; single agent at 1x its MIC): 7.95 log10 CFU/mL
Viable counts at 8 h of exposure ([2]; single agent at 2x its MIC): 6.65 log10 CFU/mL
growth- and kill rates k ('+' = growth, unmarked = kill rate) ([3]; single agent at 1x its MIC): 1.67 h⁻¹
growth- and kill rates k ('+' = growth, unmarked = kill rate) ([3]; single agent at 2x its MIC): 2.09 h⁻¹
Viable counts at 8 h of exposure ([3]; single agent at 1x its MIC): 2.78 log10 CFU/mL
Viable counts at 8 h of exposure ([3]; single agent at 2x its MIC): 1.30 log10 CFU/mL
growth- and kill rates k ('+' = growth, unmarked = kill rate) ([4]; single agent at 1x its MIC): +0.68 h^−1
growth- and kill rates k ('+' = growth, unmarked = kill rate) ([4]; single agent at 2x its MIC): +0.72 h^−1
Viable counts at 8 h of exposure ([4]; single agent at 1x its MIC): 8.95 log10 CFU/mL
Viable counts at 8 h of exposure ([4]; single agent at 2x its MIC): 8.59 log10 CFU/mL
growth- and kill rates k ('+' = growth, unmarked = kill rate) ([12]; single agent at 1x its MIC): 1.21 h⁻¹
growth- and kill rates k ('+' = growth, unmarked = kill rate) ([12]; single agent at 2x its MIC): 1.85 h⁻¹
Viable counts at 8 h of exposure ([12]; single agent at 1x its MIC): 5.08 log10 CFU/mL
Viable counts at 8 h of exposure ([12]; single agent at 2x its MIC): 3.45 log10 CFU/mL
